ChEMBL document CHEMBL5291721, “A preclinical secondary pharmacology resource illuminates target-adverse drug reaction associations of marketed drugs” (Nat Commun, 2023)

How the values were obtained:
[1] = target: T1, Prostaglandin G/H synthase 1 (Homo sapiens, UniProt P23219); format: functional
[2] = target: Sodium-dependent serotonin transporter (Homo sapiens, UniProt P31645)
[3] = target: T1, Prostaglandin G/H synthase 1; format: functional; remark: listed apart in the source
Acetylcholinesterase = Acetylcholinesterase (Homo sapiens, UniProt P22303); format: functional
Prothrombin = Prothrombin (Homo sapiens, UniProt P00734); format: functional
D(1A) dopamine receptor = D(1A) dopamine receptor (Homo sapiens, UniProt P21728)
[4] = target: T2, Muscarinic acetylcholine receptor M1 (Homo sapiens, UniProt P11229); format: functional, cell-based
T2 sequence (P11229 whole entry): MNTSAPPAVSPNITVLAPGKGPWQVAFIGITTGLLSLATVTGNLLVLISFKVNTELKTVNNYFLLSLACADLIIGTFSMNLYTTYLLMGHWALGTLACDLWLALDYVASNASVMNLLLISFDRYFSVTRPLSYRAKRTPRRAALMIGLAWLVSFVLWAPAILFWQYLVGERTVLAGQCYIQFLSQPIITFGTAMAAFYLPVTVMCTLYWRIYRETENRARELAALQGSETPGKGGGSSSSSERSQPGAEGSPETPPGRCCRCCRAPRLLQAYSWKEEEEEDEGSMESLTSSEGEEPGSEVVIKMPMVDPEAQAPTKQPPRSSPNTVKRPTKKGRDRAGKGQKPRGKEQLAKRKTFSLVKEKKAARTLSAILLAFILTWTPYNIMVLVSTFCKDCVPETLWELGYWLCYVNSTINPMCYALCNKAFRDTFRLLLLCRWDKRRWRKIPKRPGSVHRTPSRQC

Adenosine receptor A3 = target: T3, Adenosine receptor A3 (Homo sapiens, UniProt P0DMS8)
T3 sequence (P0DMS8 whole entry): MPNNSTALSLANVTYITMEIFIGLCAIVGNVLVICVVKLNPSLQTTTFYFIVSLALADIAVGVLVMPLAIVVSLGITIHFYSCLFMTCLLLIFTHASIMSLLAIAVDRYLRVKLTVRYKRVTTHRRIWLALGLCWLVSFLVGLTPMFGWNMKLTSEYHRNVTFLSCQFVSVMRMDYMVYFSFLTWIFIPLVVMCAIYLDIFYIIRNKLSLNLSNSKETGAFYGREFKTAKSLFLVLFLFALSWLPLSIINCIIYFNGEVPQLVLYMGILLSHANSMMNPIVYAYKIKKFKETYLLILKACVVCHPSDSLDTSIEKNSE

D(3) dopamine receptor = D(3) dopamine receptor (Homo sapiens, UniProt P35462)
Cannabinoid receptor 1 = Cannabinoid receptor 1 (Homo sapiens, UniProt P21554); format: functional, cell-based
[5] = target: T4, Alpha-2B adrenergic receptor (Homo sapiens, UniProt P18089)
T4 sequence (P18089 whole entry): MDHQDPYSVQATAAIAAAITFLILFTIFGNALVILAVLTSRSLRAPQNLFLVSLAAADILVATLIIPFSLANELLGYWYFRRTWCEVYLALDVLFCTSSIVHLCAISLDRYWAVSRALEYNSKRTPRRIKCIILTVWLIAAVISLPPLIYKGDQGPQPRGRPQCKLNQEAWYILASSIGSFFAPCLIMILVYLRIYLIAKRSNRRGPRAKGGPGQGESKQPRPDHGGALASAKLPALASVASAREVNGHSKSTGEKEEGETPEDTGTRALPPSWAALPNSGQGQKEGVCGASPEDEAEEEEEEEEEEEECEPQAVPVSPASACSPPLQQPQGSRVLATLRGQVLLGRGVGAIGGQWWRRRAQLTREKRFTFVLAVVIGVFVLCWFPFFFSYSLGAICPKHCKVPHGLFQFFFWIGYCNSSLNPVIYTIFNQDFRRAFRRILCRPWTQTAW

[6] = target: Kappa-type opioid receptor (Homo sapiens, UniProt P41145)
Note: assay procedure not described here.

T1 sequence (P23219 whole entry): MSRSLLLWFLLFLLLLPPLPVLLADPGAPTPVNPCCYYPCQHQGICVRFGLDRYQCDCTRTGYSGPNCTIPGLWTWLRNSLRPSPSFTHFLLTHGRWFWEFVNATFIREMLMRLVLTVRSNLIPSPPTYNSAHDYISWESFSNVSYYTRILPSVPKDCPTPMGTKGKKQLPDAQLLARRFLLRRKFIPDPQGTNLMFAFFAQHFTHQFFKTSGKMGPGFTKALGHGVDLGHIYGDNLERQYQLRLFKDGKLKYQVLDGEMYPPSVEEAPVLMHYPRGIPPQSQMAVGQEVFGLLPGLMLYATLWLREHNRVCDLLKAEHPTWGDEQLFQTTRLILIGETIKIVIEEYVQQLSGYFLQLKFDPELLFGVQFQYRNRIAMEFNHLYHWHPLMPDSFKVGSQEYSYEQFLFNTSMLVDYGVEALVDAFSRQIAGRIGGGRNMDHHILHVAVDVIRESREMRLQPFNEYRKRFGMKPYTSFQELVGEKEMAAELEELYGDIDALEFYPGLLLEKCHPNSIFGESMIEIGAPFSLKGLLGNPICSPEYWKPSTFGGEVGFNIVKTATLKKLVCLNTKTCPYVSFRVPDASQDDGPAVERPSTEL
Sequence of Sodium-dependent serotonin transporter (P31645 whole entry): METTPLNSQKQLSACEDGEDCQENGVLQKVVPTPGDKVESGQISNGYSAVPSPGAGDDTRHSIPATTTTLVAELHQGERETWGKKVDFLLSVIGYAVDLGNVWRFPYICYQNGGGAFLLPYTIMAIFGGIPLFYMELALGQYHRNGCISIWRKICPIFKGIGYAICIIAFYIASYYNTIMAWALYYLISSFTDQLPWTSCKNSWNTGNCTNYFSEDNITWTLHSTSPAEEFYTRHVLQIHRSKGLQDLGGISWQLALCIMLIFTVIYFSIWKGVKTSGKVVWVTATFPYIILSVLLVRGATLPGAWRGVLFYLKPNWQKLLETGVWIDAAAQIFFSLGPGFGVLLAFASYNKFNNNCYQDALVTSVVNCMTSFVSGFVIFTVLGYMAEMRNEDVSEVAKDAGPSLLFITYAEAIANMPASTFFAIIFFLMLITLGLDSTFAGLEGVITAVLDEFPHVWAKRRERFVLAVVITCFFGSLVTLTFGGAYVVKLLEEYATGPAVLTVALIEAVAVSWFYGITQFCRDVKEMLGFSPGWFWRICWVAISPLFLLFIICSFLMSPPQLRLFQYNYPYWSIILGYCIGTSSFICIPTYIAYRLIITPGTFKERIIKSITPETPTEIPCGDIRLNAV
Sequence of D(3) dopamine receptor (P35462 whole entry): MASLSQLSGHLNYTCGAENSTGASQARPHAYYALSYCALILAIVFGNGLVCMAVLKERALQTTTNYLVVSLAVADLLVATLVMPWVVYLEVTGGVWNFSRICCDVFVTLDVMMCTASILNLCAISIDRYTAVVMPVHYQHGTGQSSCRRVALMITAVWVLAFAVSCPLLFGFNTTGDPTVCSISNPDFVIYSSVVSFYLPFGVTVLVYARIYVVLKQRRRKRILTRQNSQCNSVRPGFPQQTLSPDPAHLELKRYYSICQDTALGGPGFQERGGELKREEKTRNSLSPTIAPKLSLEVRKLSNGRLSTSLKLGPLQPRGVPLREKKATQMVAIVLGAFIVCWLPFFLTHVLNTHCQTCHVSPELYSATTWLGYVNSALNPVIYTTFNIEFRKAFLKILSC
Sequence of D(1A) dopamine receptor (P21728 whole entry): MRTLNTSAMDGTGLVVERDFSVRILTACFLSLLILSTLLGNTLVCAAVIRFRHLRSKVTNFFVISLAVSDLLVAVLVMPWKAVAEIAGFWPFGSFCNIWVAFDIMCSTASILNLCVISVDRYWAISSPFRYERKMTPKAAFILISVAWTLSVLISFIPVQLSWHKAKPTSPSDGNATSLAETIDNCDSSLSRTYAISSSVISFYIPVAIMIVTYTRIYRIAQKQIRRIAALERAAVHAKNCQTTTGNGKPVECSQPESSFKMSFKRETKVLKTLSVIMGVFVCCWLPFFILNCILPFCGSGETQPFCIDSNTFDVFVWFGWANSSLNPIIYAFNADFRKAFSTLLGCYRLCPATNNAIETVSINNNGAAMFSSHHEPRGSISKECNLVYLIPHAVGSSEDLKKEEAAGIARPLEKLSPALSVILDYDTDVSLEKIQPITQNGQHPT
Sequence of Acetylcholinesterase (P22303 whole entry): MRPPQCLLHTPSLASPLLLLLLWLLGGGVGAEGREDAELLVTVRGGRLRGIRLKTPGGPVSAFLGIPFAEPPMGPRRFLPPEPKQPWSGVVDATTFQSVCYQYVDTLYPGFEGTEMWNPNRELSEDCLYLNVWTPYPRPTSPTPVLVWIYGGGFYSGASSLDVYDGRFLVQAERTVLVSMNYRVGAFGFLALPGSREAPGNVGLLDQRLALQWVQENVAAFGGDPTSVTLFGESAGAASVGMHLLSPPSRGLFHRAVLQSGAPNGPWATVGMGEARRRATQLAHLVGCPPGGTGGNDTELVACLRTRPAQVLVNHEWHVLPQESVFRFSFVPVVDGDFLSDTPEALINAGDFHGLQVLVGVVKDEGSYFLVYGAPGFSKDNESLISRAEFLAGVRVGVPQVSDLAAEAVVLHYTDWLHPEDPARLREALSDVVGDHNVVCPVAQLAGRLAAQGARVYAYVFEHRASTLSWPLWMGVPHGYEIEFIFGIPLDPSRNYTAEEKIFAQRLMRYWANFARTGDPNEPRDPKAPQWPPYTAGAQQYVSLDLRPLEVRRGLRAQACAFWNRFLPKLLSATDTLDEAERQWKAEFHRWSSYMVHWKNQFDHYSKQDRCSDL
Sequence of Kappa-type opioid receptor (P41145 whole entry): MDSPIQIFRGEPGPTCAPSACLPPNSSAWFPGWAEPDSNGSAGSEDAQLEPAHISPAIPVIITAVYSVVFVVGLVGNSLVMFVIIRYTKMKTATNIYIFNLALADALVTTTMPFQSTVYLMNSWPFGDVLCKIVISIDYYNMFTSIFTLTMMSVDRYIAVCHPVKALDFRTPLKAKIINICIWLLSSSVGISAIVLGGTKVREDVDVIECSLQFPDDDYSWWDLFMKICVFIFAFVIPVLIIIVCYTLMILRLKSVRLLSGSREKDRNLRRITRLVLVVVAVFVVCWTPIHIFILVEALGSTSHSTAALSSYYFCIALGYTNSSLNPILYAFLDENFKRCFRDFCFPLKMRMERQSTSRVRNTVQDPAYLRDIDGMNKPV
Sequence of Cannabinoid receptor 1 (P21554 whole entry): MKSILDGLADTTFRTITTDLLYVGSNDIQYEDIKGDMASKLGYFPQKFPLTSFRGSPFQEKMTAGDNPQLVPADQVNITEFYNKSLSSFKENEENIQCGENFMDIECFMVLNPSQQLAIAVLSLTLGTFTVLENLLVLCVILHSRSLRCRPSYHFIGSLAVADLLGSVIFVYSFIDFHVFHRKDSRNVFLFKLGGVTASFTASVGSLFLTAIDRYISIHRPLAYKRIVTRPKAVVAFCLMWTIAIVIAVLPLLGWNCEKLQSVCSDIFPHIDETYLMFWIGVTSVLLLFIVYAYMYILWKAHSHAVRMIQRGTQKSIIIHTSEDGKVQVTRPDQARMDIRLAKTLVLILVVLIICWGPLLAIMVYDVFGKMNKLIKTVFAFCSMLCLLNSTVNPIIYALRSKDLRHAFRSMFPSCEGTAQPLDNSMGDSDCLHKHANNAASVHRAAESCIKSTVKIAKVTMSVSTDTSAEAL

COC(c1ccccc1)(c1ccccc1)[C@H](Oc1nc(C)cc(C)n1)C(=O)O [AMBRISENTAN]
AC50 [1]: > 30 µM | AC50 [2]: > 30 µM | AC50 [3]: > 30 µM | AC50 (Acetylcholinesterase): > 30 µM | AC50 (Prothrombin): > 30 µM | AC50 (D(1A) dopamine receptor): > 30 µM | AC50 [4]: > 30 µM | AC50 (Adenosine receptor A3): > 30 µM | AC50 (D(3) dopamine receptor): > 30 µM

CN(C)CCn1nnnc1SCC1=C(C(=O)O)N2C(=O)[C@@H](NC(=O)Cc3csc(N)n3)[C@H]2SC1 [CEFOTIAM]
AC50 [1]: > 30 µM | AC50 [2]: > 30 µM | AC50 [3]: > 30 µM | AC50 (Acetylcholinesterase): > 30 µM | AC50 (Prothrombin): > 30 µM | AC50 (D(1A) dopamine receptor): > 30 µM | AC50 [4]: > 30 µM | AC50 (Adenosine receptor A3): > 30 µM | AC50 (D(3) dopamine receptor): > 30 µM

Oc1c(Cl)cc(Cl)c2cccnc12 [CHLOROXINE]
AC50 [1]: > 0.3 µM | AC50 [2]: > 30 µM | AC50 [3]: > 30 µM | AC50 (Acetylcholinesterase): > 30 µM | AC50 (Prothrombin): > 30 µM | AC50 (D(1A) dopamine receptor): > 30 µM | AC50 [4]: > 30 µM | AC50 (Adenosine receptor A3): > 30 µM | AC50 (D(3) dopamine receptor): > 30 µM

CN(C)[C@@H](c1cccc(O)c1)[C@H]1CCCC[C@H]1O [CIRAMADOL]
AC50 [1]: > 30 µM | AC50 [2]: 27.5 µM | AC50 [3]: > 10 µM | AC50 (Acetylcholinesterase): > 30 µM | AC50 (Prothrombin): > 30 µM | AC50 (D(1A) dopamine receptor): > 30 µM | AC50 [4]: > 30 µM | AC50 (Adenosine receptor A3): > 30 µM | AC50 (D(3) dopamine receptor): > 30 µM

CN(C)CC(c1ccc(O)cc1)C1(O)CCCCC1 (stereo not given) [DESVENLAFAXINE]
AC50 [1]: > 30 µM | AC50 [3]: > 30 µM | AC50 (Acetylcholinesterase): > 30 µM | AC50 (Prothrombin): > 30 µM | AC50 (D(1A) dopamine receptor): > 30 µM | AC50 [4]: > 30 µM | AC50 (Adenosine receptor A3): > 30 µM

CN(C)CCN1C(=O)c2ccccc2N(C)c2ccccc21 [DIBENZEPIN]
AC50 [1]: > 30 µM | AC50 [2]: 1.32 µM | AC50 [3]: > 30 µM | AC50 (Acetylcholinesterase): > 30 µM | AC50 (Prothrombin): > 30 µM | AC50 (D(1A) dopamine receptor): 14.3 µM | AC50 [4]: > 30 µM | AC50 (Adenosine receptor A3): > 30 µM | AC50 (D(3) dopamine receptor): 16.3 µM

O=C(Cc1ccc(-c2ccccc2)cc1)Nc1ccccn1 [DIFENPIRAMIDE]
AC50 [1]: > 30 µM | AC50 (Cannabinoid receptor 1): > 30 µM | AC50 [2]: > 30 µM | AC50 [3]: > 30 µM | AC50 (Acetylcholinesterase): > 30 µM | AC50 (Prothrombin): > 30 µM | AC50 (D(1A) dopamine receptor): > 30 µM | AC50 [4]: > 30 µM | AC50 (D(3) dopamine receptor): > 30 µM | AC50 [5]: > 30 µM | AC50 [6]: > 30 µM

N[C@H](C(=O)O)[C@H](O)c1ccc(O)c(O)c1 [DROXIDOPA]
AC50 [1]: > 30 µM | AC50 [2]: > 30 µM | AC50 [3]: 17.8 µM | AC50 (Acetylcholinesterase): > 30 µM | AC50 (Prothrombin): > 30 µM | AC50 (D(1A) dopamine receptor): > 30 µM | AC50 [4]: > 30 µM | AC50 (Adenosine receptor A3): > 30 µM | AC50 (D(3) dopamine receptor): > 30 µM

Cc1cc(C#N)cc(C)c1Oc1nc(Nc2ccc(C#N)cc2)nc(N)c1Br [ETRAVIRINE]
AC50 [1]: 20.4 µM | AC50 [2]: > 30 µM | AC50 [3]: 14.4 µM | AC50 (Acetylcholinesterase): > 30 µM | AC50 (Prothrombin): > 30 µM | AC50 (D(1A) dopamine receptor): 4.53 µM | AC50 [4]: > 10 µM | AC50 (D(3) dopamine receptor): > 30 µM
